The numbers were not newly measured in patent US8398606B2, “Folded perineal pad” (QuantrRx Biomedical Corporation, priority 2007, dated 2013), which cites them from elsewhere.

On the set-up of the data set: dose or concentration left out as unconfirmed. The settings on record: ILP system releasing of estradiol as its 3-acetate ester, in HRT; maintained level.

Regarding `C[C@]12CC[C@@H]3c4ccc(O)cc4CC[C@H]3[C@@H]1CC[C@@H]2O` [estradiol], the “circulating plasma concentration of the drug” value is 300 pmol/L.
